# Results: patent US11873291B2, “Quinoline cGAS antagonist compounds” (ImmuneSensor Therapeutics, Inc., priority 2020, dated 2024)
# Molecular target: T1, recombinant human cGAS (aa147-522) (Homo sapiens, UniProt Q8N884)
# T1 construct: recombinant human cGAS (aa147-522); His6-SUMO (cleaved yes); made in house; host or cells: E. coli BL21/pLys
# Assay: In vitro inhibition assay of cGAS activity (ATP consumption, KinaseGlo Max)
# Format: biochemical
# Details: Table 3, read-out: cGAS Inhibition Results IC50
# Method in brief: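 De-tagged recombinant human cGAS (aa147-522, 1.5 μg/mL) was incubated 20 min at 37 °C with herring testis DNA, 6.6 μM ATP and 0.1 mM GTP in Tris pH 7.5/MgCl2 buffer plus serial compound dilutions. Remaining ATP was read by KinaseGlo Max luminescence, and IC50 was fitted from % ATP consumption versus log concentration.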
# T1 sequence (Q8N884 147-522): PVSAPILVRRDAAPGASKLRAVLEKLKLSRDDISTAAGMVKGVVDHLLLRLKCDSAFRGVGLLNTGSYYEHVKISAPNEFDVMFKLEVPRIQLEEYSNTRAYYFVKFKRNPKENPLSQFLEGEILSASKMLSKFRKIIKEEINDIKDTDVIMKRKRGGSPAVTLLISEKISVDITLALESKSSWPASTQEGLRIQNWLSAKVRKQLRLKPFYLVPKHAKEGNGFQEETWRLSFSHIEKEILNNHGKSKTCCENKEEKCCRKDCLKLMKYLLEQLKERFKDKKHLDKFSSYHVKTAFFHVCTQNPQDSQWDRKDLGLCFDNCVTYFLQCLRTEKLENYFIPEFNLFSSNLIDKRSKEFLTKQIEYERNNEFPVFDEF
row,Compound,IC50 [nM]
1,O[C@@H]1CN(c2cc(-n3ccnc3)c3ccc(Cl)c(Cl)c3n2)C[C@H]1O [I-501],< 2000
2,NC(=O)[C@@H]1C[C@@H](O)CN1c1cc(-n2ccnc2)c2ccc(Cl)c(Cl)c2n1 [I-502],2000 to 30000
3,O=C1NCC2CCC1N2c1cc(-n2ccnc2)c2ccc(Cl)c(Cl)c2n1 (stereo not shown) [I-503],< 2000
4,OC[C@@H]1CC(F)(F)CN1c1cc(-n2ccnc2)c2ccc(Cl)c(Cl)c2n1 [I-504],< 2000
5,O=C(O)C12CC1CCN2c1cc(-n2ccnc2)c2ccc(Cl)c(Cl)c2n1 (stereo not shown) [I-505],2000 to 30000
6,O=C(O)c1cccn1-c1cc(-n2ccnc2)c2ccc(Cl)c(Cl)c2n1 [I-506],2000 to 30000
7,O=C(O)[C@@H]1C[C@H](C(F)(F)F)CN1c1cc(-n2ccnc2)c2ccc(Cl)c(Cl)c2n1 [I-508],< 2000
8,O=C(O)c1ccccc1S(=O)(=O)N[C@@H]1C[C@@H](C(=O)O)N(c2cc(-n3ccnc3)c3ccc(Cl)c(Cl)c3n2)C1 [I-509],< 2000
9,O=C(O)c1cccc(S(=O)(=O)N[C@@H]2C[C@@H](C(=O)O)N(c3cc(-n4ccnc4)c4ccc(Cl)c(Cl)c4n3)C2)c1 [I-510],< 2000
10,O=C(O)c1ccc(S(=O)(=O)N[C@@H]2C[C@@H](C(=O)O)N(c3cc(-n4ccnc4)c4ccc(Cl)c(Cl)c4n3)C2)cc1 [I-511],< 2000
11,O=C(O)CCS(=O)(=O)N[C@@H]1C[C@@H](C(=O)O)N(c2cc(-n3ccnc3)c3ccc(Cl)c(Cl)c3n2)C1 [I-512],< 2000
12,O=C(O)C12CC(Nc3cc(-n4ccnc4)c4ccc(Cl)c(Cl)c4n3)(C1)C2 [I-513],< 2000
13,O=C(O)[C@@H]1C[C@@H](O)CN1c1cc(-n2ccnc2)c2ccc(Cl)c(Cl)c2n1 [I-514],< 2000
14,O=C(O)[C@@H]1C[C@@H]2CCC[C@@H]2N1c1cc(-n2ccnc2)c2ccc(Cl)c(Cl)c2n1 [I-515],< 2000
15,CC1(C)C2[C@@H](C(=O)O)N(c3cc(-n4ccnc4)c4ccc(Cl)c(Cl)c4n3)C[C@@H]21 (stereo partly shown) [I-517],< 2000
16,O=C(O)[C@@H]1C[C@@H](N2CCOCC2)CN1c1cc(-n2ccnc2)c2ccc(Cl)c(Cl)c2n1 [I-518],< 2000
17,N[C@@H]1C[C@@H](C(=O)O)N(c2cc(-n3ccnc3)c3ccc(Cl)c(Cl)c3n2)C1 [I-519],< 2000
18,O=C(O)[C@@H]1CC(F)(F)CN1c1cc(-n2ccnc2)c2ccc(Cl)c(Cl)c2n1 [I-520],< 2000
19,O=C(O)[C@@H]1CN(c2cc(-n3ccnc3)c3ccc(Cl)c(Cl)c3n2)CCO1 [I-521],< 2000
20,CC(C)(C)OC(=O)[C@H]1CCCN1C(=O)C[C@@H]1CCCN1c1cc(-n2ccnc2)c2ccc(Cl)c(Cl)c2n1 [I-522],2000 to 30000
21,O=C(O)C1CCN(C(=O)C[C@@H]2CCCN2c2cc(-n3ccnc3)c3ccc(Cl)c(Cl)c3n2)C1 (stereo partly shown) [I-524],< 2000
22,CN(CCC(=O)O)C(=O)C[C@@H]1CCCN1c1cc(-n2ccnc2)c2ccc(Cl)c(Cl)c2n1 [I-525],< 2000
23,CC(C)[C@H](NC(=O)C[C@@H]1CCCN1c1cc(-n2ccnc2)c2ccc(Cl)c(Cl)c2n1)C(=O)O [I-526],< 2000
24,CC(C)(NC(=O)C[C@@H]1CCCN1c1cc(-n2ccnc2)c2ccc(Cl)c(Cl)c2n1)C(=O)O [I-527],< 2000
25,O=C(C[C@@H]1CCCN1c1cc(-n2ccnc2)c2ccc(Cl)c(Cl)c2n1)N[C@@H](C(=O)O)c1ccccc1 [I-528],> 30000
26,O=C(O)C1CCN(C(=O)C[C@@H]2CCCN2c2cc(-n3ccnc3)c3ccc(Cl)c(Cl)c3n2)CC1 [I-529],< 2000
27,O=C(O)C1CCCN(C(=O)C[C@@H]2CCCN2c2cc(-n3ccnc3)c3ccc(Cl)c(Cl)c3n2)C1 (stereo partly shown) [I-530],< 2000
28,COC(=O)CNC(=O)C[C@@H]1CCCN1c1cc(-n2ccnc2)c2ccc(Cl)c(Cl)c2n1 [I-531],< 2000
29,O=C(O)C1CCCCN1C(=O)C[C@@H]1CCCN1c1cc(-n2ccnc2)c2ccc(Cl)c(Cl)c2n1 (stereo partly shown) [I-533],< 2000
30,NS(=O)(=O)CC1CCCN1C(=O)C[C@@H]1CCCN1c1cc(-n2ccnc2)c2ccc(Cl)c(Cl)c2n1 (stereo partly shown) [I-534],2000 to 30000

# The remaining lines, values ahead:
row,IC50 [nM],Compound
1,2000 to 30000,COC(=O)C1CCCN(C(=O)C[C@@H]2CCCN2c2cc(-n3ccnc3)c3ccc(Cl)c(Cl)c3n2)C1 (stereo partly shown) [I-535]
2,< 2000,O=C(C[C@@H]1CCCN1c1cc(-n2ccnc2)c2ccc(Cl)c(Cl)c2n1)N1CCC(c2nnn[nH]2)C1 (stereo partly shown) [I-536]
3,2000 to 30000,NS(=O)(=O)C1CCN(C(=O)C[C@@H]2CCCN2c2cc(-n3ccnc3)c3ccc(Cl)c(Cl)c3n2)C1 (stereo partly shown) [I-537]
4,< 2000,O=C(O)C1CN(C(=O)C[C@@H]2CCCN2c2cc(-n3ccnc3)c3ccc(Cl)c(Cl)c3n2)CCO1 (stereo partly shown) [I-538]
5,< 2000,O=C(C[C@@H]1CCCN1c1cc(-n2ccnc2)c2ccc(Cl)c(Cl)c2n1)NS(=O)(=O)C(F)F [I-540]
6,< 2000,O=C(C[C@@H]1CCCN1c1cc(-n2ccnc2)c2ccc(Cl)c(Cl)c2n1)NC1CCNC1=O (stereo partly shown) [I-541]
7,2000 to 30000,CON(C)C(=O)[C@@H]1CCCN1c1cc(-n2ccnc2)c2ccc(Cl)c(Cl)c2n1 [I-542]
8,2000 to 30000,O=C(C[C@@H]1CCCN1c1cc(-n2ccnc2)c2ccc(Cl)c(Cl)c2n1)NCCC(O)(C(F)(F)F)C(F)(F)F [I-543]
9,2000 to 30000,O=C(C[C@@H]1CCCN1c1cc(-n2ccnc2)c2ccc(Cl)c(Cl)c2n1)NC1CCCNC1=O (stereo partly shown) [I-544]
10,< 2000,O=C(NS(=O)(=O)C(F)F)[C@@H]1CCCN1c1cc(-n2ccnc2)c2ccc(Cl)c(Cl)c2n1 [I-545]
11,2000 to 30000,O=C(O)C1CCCN(C(=O)[C@@H]2CCCN2c2cc(-n3ccnc3)c3ccc(Cl)c(Cl)c3n2)C1 (stereo partly shown) [I-546]
12,2000 to 30000,O=C(O)C1CCCCN1C(=O)[C@@H]1CCCN1c1cc(-n2ccnc2)c2ccc(Cl)c(Cl)c2n1 (stereo partly shown) [I-547]
13,< 2000,O=C(O)C1CCN(C(=O)[C@@H]2CCCN2c2cc(-n3ccnc3)c3ccc(Cl)c(Cl)c3n2)CC1 [I-548]
14,< 2000,O=C(O)C1CN(C(=O)[C@@H]2CCCN2c2cc(-n3ccnc3)c3ccc(Cl)c(Cl)c3n2)CCO1 (stereo partly shown) [I-549]
15,2000 to 30000,CC(C)[C@H](NC(=O)[C@@H]1CCCN1c1cc(-n2ccnc2)c2ccc(Cl)c(Cl)c2n1)C(=O)O [I-550]
16,> 30000,O=C(NC12CC(C(=O)O)(C1)C2)[C@@H]1CCCN1c1cc(-n2ccnc2)c2ccc(Cl)c(Cl)c2n1 [I-551]
17,< 2000,O=C(O)[C@@H]1CCCN1C(=O)[C@@H]1CCCN1c1cc(-n2ccnc2)c2ccc(Cl)c(Cl)c2n1 [I-552]
18,< 2000,O=C(O)C[C@@H]1CCCN1C(=O)[C@@H]1CCCN1c1cc(-n2ccnc2)c2ccc(Cl)c(Cl)c2n1 [I-553]
19,2000 to 30000,NC(=O)CCNC(=O)[C@@H]1CCCN1c1cc(-n2ccnc2)c2ccc(Cl)c(Cl)c2n1 [I-554]
20,< 2000,O=C(O)CCNC(=O)[C@@H]1CN(c2cc(-n3ccnc3)c3ccc(Cl)c(Cl)c3n2)CCO1 [I-555]
21,< 2000,NC(=O)[C@@H]1[C@@H](O)CCN1c1cc(-n2ccnc2)c2ccc(Cl)c(Cl)c2n1 [I-557]
22,< 2000,O=C(NO)[C@@H]1[C@@H](O)CCN1c1cc(-n2ccnc2)c2ccc(Cl)c(Cl)c2n1 [I-558]

row,IC50 [nM],Compound
1,< 2000,CO[C@@H]1CCN(c2cc(-n3ccnc3)c3ccc(Cl)c(Cl)c3n2)[C@@H]1C(=O)O [I-559]
2,< 2000,CO[C@H]1CCN(c2cc(-n3ccnc3)c3ccc(Cl)c(Cl)c3n2)[C@@H]1C(=O)O [I-560]
3,< 2000,O=C(O)CO[C@@H]1CCN(c2cc(-n3ccnc3)c3ccc(Cl)c(Cl)c3n2)[C@@H]1C(=O)O [I-561]
4,< 2000,CN(CC(=O)NCCC(=O)O)c1cc(-n2ccnc2)c2ccc(Cl)c(Cl)c2n1 [I-562]
5,< 2000,C[C@@H](NC(=O)CCN(C)c1cc(-n2ccnc2)c2ccc(Cl)c(Cl)c2n1)C(=O)O [I-563]
6,< 2000,CN(CCC(=O)O)C(=O)CCN(C)c1cc(-n2ccnc2)c2ccc(Cl)c(Cl)c2n1 [I-564]
7,< 2000,C[C@H](NC(=O)CCN(C)c1cc(-n2ccnc2)c2ccc(Cl)c(Cl)c2n1)C(=O)O [I-565]
8,< 2000,CN(CCC(=O)N1CCC(S(N)(=O)=O)C1)c1cc(-n2ccnc2)c2ccc(Cl)c(Cl)c2n1 (stereo not shown) [I-566]
9,< 2000,CN(CCC(=O)NCCS(N)(=O)=O)c1cc(-n2ccnc2)c2ccc(Cl)c(Cl)c2n1 [I-567]
10,2000 to 30000,CN(CC(=O)NCCC(N)=O)c1cc(-n2ccnc2)c2ccc(Cl)c(Cl)c2n1 [I-568]
11,2000 to 30000,"O=C(O)CNC(=O)O[C@H]1C[C@@H](C(=O)O)N(c2cc(-n3ccnc3)c3ccc(Cl)c(Cl)c3c2)C1 [I-570, (2S,4S)-4-(((carboxymethyl)carbamoyl)oxy)-1-(7,8-dichloro-4-(1H-imidazol-1-yl)naphthalen-2-yl)pyrrolidine-2-carboxylic acid]"
12,< 2000,O=C(O)[C@@H]1C[C@H](OC(=O)N2CCOCC2)CN1c1cc(-n2ccnc2)c2ccc(Cl)c(Cl)c2n1 [I-571]
13,< 2000,"COC(=O)C[C@@H]1CCCN1c1cc(-n2ccnc2)c2ccc(Cl)c(Cl)c2c1 [I-572, methyl (S)-2-(1-(7,8-dichloro-4-(1H-imidazol-1-yl)naphthalen-2-yl)pyrrolidin-2-yl)acetate]"
14,2000 to 30000,CC(C)(C)OC(=O)C[C@@H]1CCCN1c1cc(-n2ccnc2)c2ccc(Cl)c(Cl)c2n1 [I-573]
15,2000 to 30000,COC(=O)[C@@H]1CC[C@H](C)N1c1cc(-n2ccnc2)c2ccc(Cl)c(Cl)c2n1 [I-574]
16,> 30000,COC(=O)C12CC(CN1c1cc(-n3ccnc3)c3ccc(Cl)c(Cl)c3n1)C2 [I-579]
17,> 30000,COC(=O)C12CC(C)(CN1c1cc(-n3ccnc3)c3ccc(Cl)c(Cl)c3n1)C2 [I-580]
18,2000 to 30000,COC(=O)[C@@H]1Cc2ccccc2N1c1cc(-n2ccnc2)c2ccc(Cl)c(Cl)c2n1 [I-581]
19,2000 to 30000,COC(=O)C1N(c2cc(-n3ccnc3)c3ccc(Cl)c(Cl)c3n2)CCC1(C)C (stereo not shown) [I-587]
20,< 2000,COC(=O)[C@@H]1c2ccccc2CN1c1cc(-n2ccnc2)c2ccc(Cl)c(Cl)c2n1 [I-588]
21,2000 to 30000,COC(=O)[C@@H]1C[C@@H](N)CN1c1cc(-n2ccnc2)c2ccc(Cl)c(Cl)c2n1 [I-589]
